The test system of one data set is rodent mast cells. The note with it: Stanworth et al. 1979; cited from earlier work.
In the next data set the test system is human mast cells. The note with it: Stanworth et al. 1979; cited from earlier work.
The test system of data set [1] is human natural killer (NK) cell-induced cytotoxicity against K562 human erythroleukemia cells. The data set can be described thus: natural killer (NK) cell assay, chromium 51 release. The class given is cell-based. Here is the method:
1. To calculate percent inhibition, the average of the three dilutions of
2. N K effector cells were human mononuclear cells freshly isolated by
when incubated with normal human mononuclear cells (lymphocytes and monocytes) separated by ficoll-metronidazole gradient. […] E., et al., J. Clin. Invest. 67:1324, 1981).
The target cells used were a human erythroleukemia cell line K562 which has molecular structures recognized by NK cells. The K562 targets were prepared by incubating them with the radioactive isotope chromium 51 which is incorporated within the cells. The cells were then washed to remove externally adherent chromium 51 and 20,000 K562 cells were added to 400,000, 200,000 and 100,000 mononuclear cells to provide NK killer-to-target ratio of 20 to 1, 10 to 1, and 5 to 1, respectively, in a final volume of 200 microliters. After a 3-hour incubation at 37° C. in a 5% CO2 atmosphere, the amount of chromium 51 in the supernatent (released from dead target cells) was counted to quantitate the amount of NK killing activity. The killing activity of peptide-treatedcells was compared to non-peptide treated cells to assess the peptide's effect on NK killing activity.

Data set [2] concerns human monocyte IgG Fc receptors. The note with it: cited from earlier work.
Data set [3] deals with T1, IgE Fc receptors on a human lymphoblastoid cell line (wil-2wt) (Homo sapiens, UniProt P06734).
T1 construct: IgE Fc receptors on a human lymphoblastoid cell line (wil-2wt); host or cells: wil-2wt human lymphoblastoid cell line (endogenous receptor)
T1 sequence (P06734 1-321): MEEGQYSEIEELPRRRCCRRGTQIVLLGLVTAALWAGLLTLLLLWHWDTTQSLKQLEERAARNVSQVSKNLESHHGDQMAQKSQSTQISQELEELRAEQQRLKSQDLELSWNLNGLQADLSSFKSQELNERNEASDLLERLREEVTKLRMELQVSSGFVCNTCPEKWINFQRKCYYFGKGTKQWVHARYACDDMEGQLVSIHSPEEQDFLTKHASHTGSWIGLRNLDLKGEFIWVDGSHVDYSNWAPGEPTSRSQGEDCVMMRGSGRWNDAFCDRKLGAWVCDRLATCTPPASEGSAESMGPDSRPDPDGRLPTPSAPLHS
The conditions noted are these: Hamburger, Immunology 38, 781 (1979); cited from earlier work.

Data set [4] concerns macrophage IgG Fc receptors of mice. The conditions noted are these: Stanworth, Mol. Immunol. 19, 1245 (1982); cited from earlier work.
In a further data set the test system is mouse macrophages. The note with it: Stanworth, Mol. Immunol. 19, 1245 (1982); cited from earlier work.
Where [5] appears, read: peptide 100 μg/ml, (killer-to-target ratio 20 to 1).

Where a SMILES comes first, the peptide text is derived from it. Where no end group is shown, it is not given here.

The values below come from patent US4816449A, “Immunotherapeutic anti-inflammatory peptide agents” (Immunetech Pharmaceuticals, priority 1986, dated 1989).

As for “PRKTKGSGFFVF [peptide identical to portion of Cε 4 of human IgE, aa 495-506]”, the “degranulation of rodent mast cells” value with rodent mast cells was “able to cause degranulation”. In the data set with human mast cells, the “degranulation of human mast cells” value is “able to cause degranulation”.

As for `C[C@H](NC(=O)[C@H](CC(=O)O)NC(=O)[C@@H]1CCCN1)C(=O)N[C@@H](CCCNC(=N)N)C(=O)O` [Pro--Asp--Ala-- Arg, Pro-Asp-Ala-Arg] (H-PDAR-OH), the “% cytotoxicity” value is on record as 10.1% in data set [1] (peptide 25 μg/ml, 5 to 1); 17.8% in data set [1] (peptide 25 μg/ml, 10 to 1); 22.7% in data set [1] (peptide 25 μg/ml, 20 to 1); 10.3% in data set [1] (peptide 50 μg/ml, 5 to 1); 15.5% in data set [1] (peptide 50 μg/ml, 10 to 1); 23.1% in data set [1] (peptide 50 μg/ml, 20 to 1). In addition, the “% cytotoxicity” value in data set [1] (peptide 100 μg/ml, 5 to 1) was found to be 5.6%; in data set [1] (peptide 100 μg/ml, 10 to 1) it was 10.4%; in data set [1] (setting [5]), 17.1%.

For the compound “QYDSTYR [peptide identical to IgG aa 295-301]”, the “blocking of IgG binding to human monocyte IgG Fc receptors” value in data set [2] is “could slightly block”.

For `C[C@H](N)C(=O)N[C@@H](CCCNC(=N)N)C(=O)N[C@@H](Cc1c[nH]cn1)C(=O)N[C@@H](CO)C(=O)O` [Ala--Arg--His--Ser, Ala-Arg-His-Ser] (H-ARHS-OH), the “% cytotoxicity” value in data set [1] (peptide 25 μg/ml, 5 to 1) turned out to be 12.5%; in data set [1] (peptide 25 μg/ml, 10 to 1), 19.4%; in data set [1] (peptide 25 μg/ml, 20 to 1) it was 24.8%; in data set [1] (peptide 50 μg/ml, 5 to 1), 10.4%; in data set [1] (peptide 50 μg/ml, 10 to 1), 20.7%; in data set [1] (peptide 50 μg/ml, 20 to 1) it was 26.3%. The “% cytotoxicity” value in data set [1] (peptide 100 μg/ml, 5 to 1) is given as 10.6%; in data set [1] (peptide 100 μg/ml, 10 to 1), 18.5%; in data set [1] (setting [5]), 21.8%.

For `C[C@H](NC(=O)[C@@H](N)CC(=O)O)C(=O)N[C@@H](CCCNC(=N)N)C(=O)N[C@@H](Cc1c[nH]cn1)C(=O)O` [Asp--Ala--Arg--His, Asp-Ala-Arg-His] (H-DARH-OH), the “% cytotoxicity” value in data set [1] (peptide 25 μg/ml, 5 to 1) stood at 6.8%; in data set [1] (peptide 25 μg/ml, 10 to 1), 12.9%; in data set [1] (peptide 25 μg/ml, 20 to 1), 19.3%; in data set [1] (peptide 50 μg/ml, 5 to 1), 7.5%; in data set [1] (peptide 50 μg/ml, 10 to 1), 12.8%; in data set [1] (peptide 50 μg/ml, 20 to 1), 13.8%. For the same compound, the “% cytotoxicity” value in data set [1] (peptide 100 μg/ml, 5 to 1) came out at 10.5%; in data set [1] (peptide 100 μg/ml, 10 to 1), 16.4%; in data set [1] (setting [5]), 24.5%.

Turning to “PDARHS [hexapeptide derived from Cε 4 at aa 476-481]”, in data set [3], the “blocking of human IgE-binding to IgE Fc receptors on wil-2wt cells” value is “could block”.

As for “YSKLTVDKSR [decapeptide from human IgG, identical to IgG aa 407-416]”, in data set [4], the “blocking of human IgG binding to macrophage IgG Fc receptors of mice” value was “blocked human IgG binding”.

As for “VFSRLEVTRAE [peptide identical to a portion of Cε 4 of human IgE at aa 505-515]”, the “effect on binding of 125I-human IgG to mouse macrophages” value in the data set with mouse macrophages was “marked enhancement”.
